The source of these data is ChEMBL document CHEMBL1145469, “Lysostaphin in treatment of neonatal Staphylococcus aureus infection” (Antimicrob Agents Chemother, 2007).

For series [1], the system named is Rattus norvegicus. The series is described as follows: Drug level in rat serum at 25 mg/kg, im. It is filed as ADME, organism-based. The arrangement: dose 25 mg/kg, route intramuscular. Conditions: in vivo.
In series [2] the test system is Serum. The series is described as follows: Drug level in Staphylococcus aureus infected Wistar rat pups serum at 50 mg/kg, ip. It is filed as ADME, organism-based. The arrangement: dose 50 mg/kg, route intraperitoneal. Conditions: in vivo.
Series [3] concerns Staphylococcus aureus. The experiment in a line: Antibacterial activity against methicillin-sensitive Staphylococcus aureus. The series is classed as functional.
Series [4] deals with Serum. The series is described as follows: Drug level in Staphylococcus aureus infected Wistar rat pups serum at 15 mg/kg, ip. It is filed as ADME, organism-based. The arrangement: dose 15 mg/kg, route intraperitoneal. Conditions: in vivo.
A short description of series [5]: Drug level in rat serum at 30 mg/kg, sc after 1 hr. It is filed as ADME, organism-based. The arrangement: dose 30 mg/kg, route subcutaneous. The settings on record: read-out: Drug uptake.
Series [6] in a line: Drug level in rat serum at 100 mg/kg, iv after 0.5 hr. It is filed as ADME, organism-based. The arrangement: dose 100 mg/kg, route intravenous. The settings on record: read-out: Drug uptake.
The nature of series [7]: Drug level in rat serum at 100 mg/kg, iv after 2 hrs. The series is classed as ADME, organism-based. The arrangement: dose 100 mg/kg, route intravenous. Conditions: read-out: Drug uptake.

SMILES strings stand for the structures. Values after ≈ are worked out from the molar mass of the structure shown. Where only a bound is given, the exact number is not on record here.

As for `CCOc1ccc2ccccc2c1C(=O)N[C@@H]1C(=O)N2[C@@H]1SC(C)(C)[C@@H]2C(=O)O` [NAFCILLIN], the Drug uptake in series [1] came to 20.6 µg/mL.

In turn, `Cc1onc(-c2ccccc2)c1C(=O)N[C@@H]1C(=O)N2[C@@H]1SC(C)(C)[C@@H]2C(=O)O` [OXACILLIN] had a Drug uptake in series [2] greater than 125 µg/mL. In series [3], this molecule displayed an MBC of 0.25 µg/mL (≈ 0.623 µM) and an MIC of 0.125 µg/mL (≈ 0.311 µM).

Molecule `CN[C@H](CC(C)C)C(=O)N[C@H]1C(=O)N[C@@H](CC(N)=O)C(=O)N[C@H]2C(=O)N[C@H]3C(=O)N[C@H](C(=O)N[C@H](C(=O)O)c4cc(O)cc(O)c4-c4cc3ccc4O)[C@H](O)c3ccc(c(Cl)c3)Oc3cc2cc(c3O[C@@H]2O[C@H](CO)[C@@H](O)[C@H](O)[C@H]2O[C@H]2C[C@](C)(N)[C@H](O)[C@H](C)O2)Oc2ccc(cc2Cl)[C@H]1O` [VANCOMYCIN] had a Drug uptake in series [4] greater than 125 µg/mL. The same molecule gave an MBC in series [3] of 0.25 µg/mL (≈ 0.173 µM). For the same molecule, the concentration at 1 h in series [5] stood at 36000 ng/mL. In series [6], the concentration at 0.5 h came to 180000 ng/mL. For the same molecule, the concentration at 2 h in series [7] came out at 45000 ng/mL.
